Assay results as given in article PMC7026418, “The kinase polypharmacology landscape of clinical PARP inhibitors” (Scientific Reports, 2020).
Where two headings read alike, the source gives them in different places.

Legend:
Experiment in all cases: biochemical
Set-up in all cases: DiscoveRx KINOMEscan active site-directed competition binding; percent of control kinase bound to immobilised ligand
LYN = LYN (Homo sapiens, UniProt P07948)
TXK = target: T1, TXK (Homo sapiens, UniProt P42681)
T1 sequence (P42681 1-527): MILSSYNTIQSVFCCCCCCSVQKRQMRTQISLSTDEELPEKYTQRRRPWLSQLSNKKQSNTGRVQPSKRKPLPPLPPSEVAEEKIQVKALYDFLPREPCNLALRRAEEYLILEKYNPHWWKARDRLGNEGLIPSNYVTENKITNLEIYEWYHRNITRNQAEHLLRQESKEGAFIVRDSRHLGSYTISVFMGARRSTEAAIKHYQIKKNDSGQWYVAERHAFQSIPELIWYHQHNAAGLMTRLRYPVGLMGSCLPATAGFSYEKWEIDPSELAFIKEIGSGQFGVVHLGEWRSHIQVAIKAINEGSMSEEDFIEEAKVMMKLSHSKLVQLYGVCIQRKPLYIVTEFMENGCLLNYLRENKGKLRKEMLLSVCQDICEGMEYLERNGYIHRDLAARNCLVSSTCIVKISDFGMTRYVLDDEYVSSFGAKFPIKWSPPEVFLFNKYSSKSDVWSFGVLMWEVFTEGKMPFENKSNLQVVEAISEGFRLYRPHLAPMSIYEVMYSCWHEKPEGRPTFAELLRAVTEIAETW

TRPM6 = TRPM6 (Homo sapiens, UniProt Q9BX84)
SRC = SRC (Homo sapiens, UniProt P12931)
EPHB3 = target: T2, EPHB3 (Homo sapiens, UniProt P54753)
T2 sequence (P54753 1-998): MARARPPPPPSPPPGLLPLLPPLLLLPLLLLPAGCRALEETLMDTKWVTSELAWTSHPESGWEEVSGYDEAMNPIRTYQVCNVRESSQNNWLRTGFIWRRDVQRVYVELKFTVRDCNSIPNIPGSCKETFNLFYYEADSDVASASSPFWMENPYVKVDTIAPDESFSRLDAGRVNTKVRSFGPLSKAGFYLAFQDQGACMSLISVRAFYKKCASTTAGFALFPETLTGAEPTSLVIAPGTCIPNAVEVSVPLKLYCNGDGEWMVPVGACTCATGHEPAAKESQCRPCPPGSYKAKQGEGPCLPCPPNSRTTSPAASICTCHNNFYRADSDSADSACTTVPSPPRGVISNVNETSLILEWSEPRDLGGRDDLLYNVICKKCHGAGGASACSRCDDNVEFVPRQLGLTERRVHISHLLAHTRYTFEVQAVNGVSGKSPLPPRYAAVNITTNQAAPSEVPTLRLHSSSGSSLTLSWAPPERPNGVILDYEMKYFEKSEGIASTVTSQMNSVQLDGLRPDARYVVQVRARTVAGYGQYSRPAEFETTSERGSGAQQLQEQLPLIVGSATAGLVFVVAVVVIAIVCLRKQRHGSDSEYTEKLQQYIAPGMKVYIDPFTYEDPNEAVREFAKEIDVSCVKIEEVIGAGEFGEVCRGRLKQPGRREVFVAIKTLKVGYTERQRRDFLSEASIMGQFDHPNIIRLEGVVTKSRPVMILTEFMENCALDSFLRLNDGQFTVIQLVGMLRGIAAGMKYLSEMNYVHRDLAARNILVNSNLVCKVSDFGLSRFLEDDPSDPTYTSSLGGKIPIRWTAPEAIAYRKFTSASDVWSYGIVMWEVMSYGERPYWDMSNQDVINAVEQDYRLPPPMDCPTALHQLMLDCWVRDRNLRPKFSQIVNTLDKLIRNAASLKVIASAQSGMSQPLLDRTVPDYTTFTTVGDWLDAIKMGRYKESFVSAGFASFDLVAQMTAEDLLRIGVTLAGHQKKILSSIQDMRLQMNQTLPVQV

MERTK = target: T3, MERTK (Homo sapiens, UniProt Q12866)
T3 sequence (Q12866 1-999): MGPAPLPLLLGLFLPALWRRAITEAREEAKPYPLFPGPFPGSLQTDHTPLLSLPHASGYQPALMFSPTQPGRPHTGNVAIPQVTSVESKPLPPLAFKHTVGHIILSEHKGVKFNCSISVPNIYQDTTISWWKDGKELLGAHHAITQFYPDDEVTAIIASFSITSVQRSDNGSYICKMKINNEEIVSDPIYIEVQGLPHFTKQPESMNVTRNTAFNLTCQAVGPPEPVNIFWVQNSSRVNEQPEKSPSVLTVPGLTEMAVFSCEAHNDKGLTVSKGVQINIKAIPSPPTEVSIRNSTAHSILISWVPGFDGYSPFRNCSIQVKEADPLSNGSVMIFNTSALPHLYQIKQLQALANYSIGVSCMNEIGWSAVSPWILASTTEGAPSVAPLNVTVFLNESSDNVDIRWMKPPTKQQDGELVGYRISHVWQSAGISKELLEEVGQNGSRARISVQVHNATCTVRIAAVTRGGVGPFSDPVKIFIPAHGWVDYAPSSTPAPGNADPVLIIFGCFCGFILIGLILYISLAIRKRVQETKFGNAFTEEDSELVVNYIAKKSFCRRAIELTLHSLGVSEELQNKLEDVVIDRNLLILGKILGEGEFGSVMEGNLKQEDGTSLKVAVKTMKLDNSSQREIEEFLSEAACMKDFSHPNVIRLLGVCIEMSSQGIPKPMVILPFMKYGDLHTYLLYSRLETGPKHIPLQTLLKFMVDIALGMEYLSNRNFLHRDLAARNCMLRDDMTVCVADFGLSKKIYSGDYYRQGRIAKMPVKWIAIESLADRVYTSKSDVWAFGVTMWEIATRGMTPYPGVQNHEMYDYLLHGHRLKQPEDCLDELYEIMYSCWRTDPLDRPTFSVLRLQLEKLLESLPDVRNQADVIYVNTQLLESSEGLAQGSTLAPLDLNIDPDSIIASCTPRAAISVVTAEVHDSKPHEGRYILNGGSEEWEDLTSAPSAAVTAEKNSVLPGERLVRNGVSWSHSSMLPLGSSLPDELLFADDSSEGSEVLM

[1] = read-out: Talazoparib (BMN 673) / %Ctrl @ 10000nM
[2] = read-out: Olaparib / %Ctrl @ 10000nM
[3] = read-out: Niraparib (MK-4827) / %Ctrl @ 10000nM
[4] = read-out: Rucaparib / %Ctrl @ 10000nM, binding competition, % of control

SRC, sequence (P12931 whole entry): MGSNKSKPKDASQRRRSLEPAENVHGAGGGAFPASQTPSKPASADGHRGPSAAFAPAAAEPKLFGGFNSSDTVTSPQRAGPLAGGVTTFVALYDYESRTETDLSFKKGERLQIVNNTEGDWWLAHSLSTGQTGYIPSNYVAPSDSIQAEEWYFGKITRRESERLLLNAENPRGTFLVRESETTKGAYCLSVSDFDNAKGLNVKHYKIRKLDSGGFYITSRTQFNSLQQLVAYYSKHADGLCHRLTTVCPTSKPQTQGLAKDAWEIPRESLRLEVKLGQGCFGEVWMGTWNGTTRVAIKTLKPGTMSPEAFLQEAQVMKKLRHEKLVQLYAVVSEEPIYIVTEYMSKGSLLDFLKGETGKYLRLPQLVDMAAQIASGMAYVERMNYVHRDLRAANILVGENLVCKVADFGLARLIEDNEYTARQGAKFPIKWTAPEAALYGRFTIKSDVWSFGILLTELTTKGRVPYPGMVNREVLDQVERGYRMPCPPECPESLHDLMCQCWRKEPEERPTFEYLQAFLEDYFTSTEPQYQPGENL
LYN, sequence (P07948 whole entry): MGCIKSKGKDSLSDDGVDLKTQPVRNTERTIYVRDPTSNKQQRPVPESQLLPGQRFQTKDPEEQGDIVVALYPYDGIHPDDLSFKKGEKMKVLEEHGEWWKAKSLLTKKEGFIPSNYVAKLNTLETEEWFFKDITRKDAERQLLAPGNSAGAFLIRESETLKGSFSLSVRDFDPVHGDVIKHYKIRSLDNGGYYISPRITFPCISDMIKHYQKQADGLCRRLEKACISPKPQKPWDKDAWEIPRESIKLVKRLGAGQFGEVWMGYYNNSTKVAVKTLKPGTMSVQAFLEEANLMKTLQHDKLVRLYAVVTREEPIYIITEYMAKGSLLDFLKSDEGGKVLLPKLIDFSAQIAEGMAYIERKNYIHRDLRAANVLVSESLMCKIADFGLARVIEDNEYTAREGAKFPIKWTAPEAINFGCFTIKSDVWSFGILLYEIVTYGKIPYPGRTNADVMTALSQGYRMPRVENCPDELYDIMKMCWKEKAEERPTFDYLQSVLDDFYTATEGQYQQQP
TRPM6, sequence (Q9BX84 whole entry): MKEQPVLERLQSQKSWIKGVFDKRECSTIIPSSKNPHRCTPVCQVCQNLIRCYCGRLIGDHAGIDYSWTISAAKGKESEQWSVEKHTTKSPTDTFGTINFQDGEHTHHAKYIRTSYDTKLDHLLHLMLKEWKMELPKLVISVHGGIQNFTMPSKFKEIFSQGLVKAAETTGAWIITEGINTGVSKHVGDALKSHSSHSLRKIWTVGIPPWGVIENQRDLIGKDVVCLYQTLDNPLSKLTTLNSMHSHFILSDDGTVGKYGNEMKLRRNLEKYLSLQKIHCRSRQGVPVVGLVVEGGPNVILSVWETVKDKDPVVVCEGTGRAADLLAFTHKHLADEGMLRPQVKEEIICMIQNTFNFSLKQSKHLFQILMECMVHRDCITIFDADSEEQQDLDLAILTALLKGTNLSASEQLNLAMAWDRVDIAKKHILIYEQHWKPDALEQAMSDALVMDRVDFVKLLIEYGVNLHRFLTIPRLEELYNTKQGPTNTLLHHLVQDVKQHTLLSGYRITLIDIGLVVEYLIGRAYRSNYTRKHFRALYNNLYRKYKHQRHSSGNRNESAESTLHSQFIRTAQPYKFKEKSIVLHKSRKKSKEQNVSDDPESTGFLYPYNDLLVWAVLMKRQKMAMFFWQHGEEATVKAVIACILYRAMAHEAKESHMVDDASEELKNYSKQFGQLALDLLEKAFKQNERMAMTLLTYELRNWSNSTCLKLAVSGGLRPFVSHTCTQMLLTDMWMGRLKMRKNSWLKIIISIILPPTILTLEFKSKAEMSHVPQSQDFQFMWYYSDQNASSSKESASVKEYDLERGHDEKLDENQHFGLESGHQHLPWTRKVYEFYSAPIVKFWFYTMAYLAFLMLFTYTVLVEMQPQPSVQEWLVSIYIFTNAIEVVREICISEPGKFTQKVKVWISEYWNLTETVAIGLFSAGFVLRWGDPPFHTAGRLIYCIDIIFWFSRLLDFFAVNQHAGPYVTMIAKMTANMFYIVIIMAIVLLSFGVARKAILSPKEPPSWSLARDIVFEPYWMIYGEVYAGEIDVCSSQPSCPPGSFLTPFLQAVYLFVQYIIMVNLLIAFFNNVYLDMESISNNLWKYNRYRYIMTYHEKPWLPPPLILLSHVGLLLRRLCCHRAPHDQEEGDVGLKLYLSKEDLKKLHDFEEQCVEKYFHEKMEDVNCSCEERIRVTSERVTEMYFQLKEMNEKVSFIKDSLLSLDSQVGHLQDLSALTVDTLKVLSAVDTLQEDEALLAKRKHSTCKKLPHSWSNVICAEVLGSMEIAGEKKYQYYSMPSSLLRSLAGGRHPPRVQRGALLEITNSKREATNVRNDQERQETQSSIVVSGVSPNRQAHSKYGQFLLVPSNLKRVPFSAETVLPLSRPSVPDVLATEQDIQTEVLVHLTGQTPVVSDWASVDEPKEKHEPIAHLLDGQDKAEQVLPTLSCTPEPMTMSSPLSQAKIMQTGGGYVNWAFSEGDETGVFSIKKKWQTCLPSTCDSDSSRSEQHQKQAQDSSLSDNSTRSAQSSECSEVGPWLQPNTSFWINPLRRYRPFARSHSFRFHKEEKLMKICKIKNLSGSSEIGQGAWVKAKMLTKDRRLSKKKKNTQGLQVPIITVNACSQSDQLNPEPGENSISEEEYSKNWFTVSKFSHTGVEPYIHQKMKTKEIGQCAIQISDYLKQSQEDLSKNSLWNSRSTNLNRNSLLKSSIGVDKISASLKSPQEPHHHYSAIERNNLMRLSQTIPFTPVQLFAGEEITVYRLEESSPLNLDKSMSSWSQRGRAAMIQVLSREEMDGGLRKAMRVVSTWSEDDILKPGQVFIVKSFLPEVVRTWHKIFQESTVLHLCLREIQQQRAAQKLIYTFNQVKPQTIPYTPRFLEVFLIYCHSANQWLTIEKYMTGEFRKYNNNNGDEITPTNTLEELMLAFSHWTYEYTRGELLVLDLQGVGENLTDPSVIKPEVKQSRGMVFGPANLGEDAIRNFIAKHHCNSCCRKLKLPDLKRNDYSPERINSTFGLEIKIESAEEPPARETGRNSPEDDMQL

Cn1ncnc1[C@H]1c2n[nH]c(=O)c3cc(F)cc(c23)N[C@@H]1c1ccc(F)cc1 [Talazoparib]
percent of control binding at 10 µM (LYN; [1]): 87% | percent of control binding at 10 µM (TXK; [1]): 91% | percent of control binding at 10 µM (TRPM6; [1]): 100% | percent of control binding at 10 µM (SRC; [1]): 93% | percent of control binding at 10 µM (EPHB3; [1]): 100% | percent of control binding at 10 µM (MERTK; [1]): 98%

O=C(c1cc(Cc2n[nH]c(=O)c3ccccc23)ccc1F)N1CCN(C(=O)C2CC2)CC1 [Olaparib]
percent of control binding at 10 µM (LYN; [2]): 93% | percent of control binding at 10 µM (TXK; [2]): 86% | percent of control binding at 10 µM (TRPM6; [2]): 84% | percent of control binding at 10 µM (SRC; [2]): 100% | percent of control binding at 10 µM (EPHB3; [2]): 87% | percent of control binding at 10 µM (MERTK; [2]): 83%

NC(=O)c1cccc2cn(-c3ccc([C@@H]4CCCNC4)cc3)nc12 [Niraparib]
percent of control binding at 10 µM (LYN; [3]): 71% | percent of control binding at 10 µM (TXK; [3]): 86% | percent of control binding at 10 µM (TRPM6; [3]): 71% | percent of control binding at 10 µM (SRC; [3]): 94% | percent of control binding at 10 µM (EPHB3; [3]): 82% | percent of control binding at 10 µM (MERTK; [3]): 99%

CNCc1ccc(-c2[nH]c3cc(F)cc4c3c2CCNC4=O)cc1 [Rucaparib]
percent of control binding at 10 µM (LYN; [4]): 89% | percent of control binding at 10 µM (TXK; [4]): 100% | percent of control binding at 10 µM (TRPM6; [4]): 77% | percent of control binding at 10 µM (SRC; [4]): 99% | percent of control binding at 10 µM (EPHB3; [4]): 99% | percent of control binding at 10 µM (MERTK; [4]): 64%
